The results in this text go back to patent US20260250269A1, “APOPTOSIS INHIBITOR SALTS FOR CANCER” (priority 2022, published 2026).

For data set [1] the following is noted: pH of about 7.4.
The test system of data set [2] is SU-DHL-10 human diffuse large B cell lymphoma xenograft. Description: Anti-tumor activity against SU-DHL-10 xenograft. Type of data set: in vivo, BALB/c nude mice. On the procedure: For the monobromide continuous i.v. infusion group, the monobromide was dissolved with physiological saline to prepare 12.12 mg/mL clear solution.
For the monobromide i.p. injection group, the monobromide was dissolved with physiological saline to prepare 0.41 mg/mL clear solution. The dose volume was determined by the mice′ body weight collected on the morning of dosing day, calculated by the formula: dose volume (10 mL/kg)×body weight.
For the pamoate i.m. injection group, the pamoate salt was mixed with appropriate volume of vehicle solution (0.5% CMC-Na (viscosity 400-800 cps, CAS No. 9004-32-4), 0.2% Tween-80 in 10 mM pH 7.4 PBS saline) to get a uniform suspension after 15 min sonication, with final concentration of 5.6 mg/mL, similar to the procedure described in Example 14. The dose volume was determined by the mice′ body weight collected on the morning of dosing day, calculated by the formula: dose volume (2 mL/kg)×body weight.
Human diffuse large B cell lymphoma cell line SU-DHL-10 was obtained from Cobioer Biotechnology Co., Ltd (China). The cells were cultured at 37° C. with 5% CO2 in RPMI-1640 (Hyclone, USA) supplemented with 10% heat inactivated fetal bovine serum (Gibco, USA) and 1% GlutaMAX (Gibco, USA). The cells were collected, suspended in PBS at 2×10^8 cells/mL, and then mixed with the equivalent volume of Matrigel® Basement Membrane Matrix (Corning, USA).
Six-week-old female BALB/c-nude mice were purchased from SPF Biotechnology Co., Ltd. (Beijing, China). They were maintained on a standard diet and water throughout the experiments under specific pathogen-free conditions. The cells were cultured in vitro and 0.1×10^8 cells/0.1 mL/mouse were grafted subcutaneously into the flank of NOD-SCID (NVSG) mice (Beijing Viewsolid Biotech Co. LTD), 6-week-old. When the tumor reached about 1 cm in diameter, tumor-bearing mice were sacrificed and tumors were removed and sliced into small fragments (approximately 3×3×3 mm^3/fragment) and re-inoculated into BALB/c nude mice. The mice with a tumor volume (length×width^2×0.5) of 99.28 to 247.10 mm^3 were divided into four groups randomly, using Study Director Software (Studylog Systems, Inc, Version 3.1.399.22, USA) to minimize intragroup and intergroup tumor volume variation.
The first day of administration was designated day 0, and observation continued until day 35. Each group was treated as follows (Table 15).
The vehicle control group received i.m. injection of vehicle solution on day 0, 7 and 14 (Group 1). For 21-day continuous i.v. infusion, an osmotic pump containing the monobromide was implanted in the dorsum of each animal while under anesthesia on day 0, with daily dose of […], approximately 1.6 mg/kg/day (Group 2). The monobromide i.p. injection group was administrated referring to FIVE-DAY-ON, TWO-DAY-OFF procedure on day 0-4, 7-11 and 14-18 (Group 3) per Minoda et. al, Antitumor effect of YM155, a novel small-molecule survivin suppressant, via mitochondrial apoptosis in human MFH/UPS, International Journal of Oncology, 2015, 47:891-899. For the pamoate i.m. injection group, drug suspension was administrated once per week at 11.2 mg/kg, approximately 7 times daily dosage of the monobromide i.v. infusion group, on day 0, 7 and 14 (Group 4).

Data set [3] in a line: Photostability test (ICH Option 1, ID65 light).
Protocol: Purity via HPLC, XRPD, and appearance inspection were performed before and after light exposure to determine photostability of the two compounds.
Light source—ICH Option 1 light source standard was adopted. ID65 light, equivalent indoor indirect daylight standard, with 250 W/m^2 light source intensity was used.
Total light exposure and light exposure time−total light exposure was set to 1.44 million lux light quantity (1000 lux×24 h×60 d=1,440,000 lux light quantity). Light stability testing box with ID65 light source of 250 W/m^2 intensity was adopted. According to ICH Option 1 standard, 21.8 hours light exposure could reach 1.2 million lux light quantity. Therefore, 26.2 hours light exposure is needed to reach 1.44 million lux quantity.
Testing—Accurately weight 0.5 g of the monobromide and the pamoate, place in petri dishes (covered with clear wrap film) and spread into a layer no more than 3 mm thickness, separately. Samples were put into light stability testing box, and received total amount of light exposure not less than 1.44 million lux light quantity (ID65 light, 250 W/m^2, 26.2 hours, 25° C., 60% relative humidity). After light exposure, samples were removed for characterization, including appearance inspection, XRPD and purity via HPLC.
The nature of data set [4]: Body weight in SU-DHL-10 xenografted mice. The conditions noted are these: for Mean Body Weight ± SEM: Group 4: Form A, 11.2 mg/kg i.m. Day 0, 7, 14.
For a further data set, the system named is Caspase-3. The data set is described as follows: Caspase-3 protein expression in xenografted SU-DHL-10 tumor (Western blot). It is filed as in vivo, mouse. The conditions noted are these: Form A, single i.m. injection 11.2 mg/kg, 24 hours post dosing, versus vehicle. On the procedure:
The pamoate was administrated via single intramuscular (i.m.) injection to SU-DHL-10 xenografted mice to examine the effect of the pamoate on c-Myc expression level in tumor at the 24-hour time point post injection.
The pamoate was mixed with appropriate volume of vehicle solution (0.5% carboxymethylcellulose sodium (CMC-Na, viscosity 400-800 cps, CAS No. 9004-32-4, Sigma-Aldrich, USA) and 0.2% Tween-80 in 10 mM pH 7.4 phosphate buffer saline (PBS)) to get a uniform suspension after 15 min sonication, with final concentration of 5.6 mg/mL. The dose volume was determined by the mice′ body weight collected on the morning of dosing day, calculated by the formula: dose volume (2 mL/kg)×body weight.
Human diffuse large B cell lymphoma cell line SU-DHL-10 was obtained from Cobioer Biotechnology Co., Ltd (China). […]
The tumor was excised with scissors, resuspended in cold cell lysis buffer containing 20 mM Tris (pH7.5), 150 mM NaCl, 1% Triton X-100, 2 mM AEBSF, […] Aprotinin, 130 μM Bestatin, 14 μM E64, 10 μM Leupeptin, 5 mM sodium fluoride, 1 mM sodium pyrophosphate, 1 mM β-glycerophosphate and 1 mM sodium orthovanadate, and then homogenized with handheld homogenizer (Beyotime, China). […] Protein contents were determined using Micro BCA™ Protein Assay Kit (23235, Thermo Scientific, USA). […] Visualization was carried out using the Enhanced Chemi-luminescence Kit (Beyotime, China).

[5] abbreviates: Group 4: Form A, 11.2 mg/kg i.m. Day 0, 7, 14, Day 21.
Where [6] appears, read: Group 4: Form A, 11.2 mg/kg i.m. Day 0, 7, 14, Day 35.
[7] abbreviates: ID65 light, 250 W/m^2, 25° C./60% RH (ICH Option 1), 26.2 hours.
Setting [8] is: Initial, irradiation time 0 hours.

In the case of `COCCn1c2c([n+](Cc3cnccn3)c1C)C(=O)c1ccccc1C2=O.COCCn1c2c([n+](Cc3cnccn3)c1C)C(=O)c1ccccc1C2=O.O=C([O-])c1cc2ccccc2c(Cc2c(O)c(C(=O)[O-])cc3ccccc23)c1O` [pamoate salt], the Aqueous solubility result in data set [1] is “less than 0.02 mg/mL”. Also, the “Mean Tumor Volume ± SEM” value in data set [2] (Group 4: Form A, 11.2 mg/kg i.m. Day 0, 7, 14, Day 0) amounted to 151.26 ± 23.65 mm^3. The “Mean Tumor Volume ± SEM” value in data set [2] (Group 4: Form A, 11.2 mg/kg i.m. Day 0, 7, 14, Day 7) was 0.00 ± 0.00 mm^3. For the same compound, in data set [2] (setting [5]), the “Antitumor Activity, percent inhibition of tumor growth (% inh)” value is 118.27%; the “Antitumor Activity, percent regression of the tumor (% reg)” value was 100%; the “Mean Tumor Volume ± SEM” value amounted to 0.00 ± 0.00 mm^3. Besides, the “Mean Tumor Volume ± SEM” value in data set [2] (Group 4: Form A, 11.2 mg/kg i.m. Day 0, 7, 14, Day 28) was 23.61 ± 23.61 **^, N.S., $ mm^3. Moreover, in data set [2] (setting [6]), the “Antitumor Activity, percent inhibition of tumor growth (% inh)” value is recorded as 98.22%; the “Antitumor Activity, percent regression of the tumor (% reg)” value is on record as −19.21%; the “Mean Tumor Volume ± SEM” value was 180.32 ± 101.25 **^, N.S., $ mm^3; the “Number of CRs (complete response)” value was 3/6. In addition, in data set [2] (SU-DHL-10 xenograft tumor model), the “Safety and efficacy (in words)” value is “good safety and efficacy”. Moreover, the “Photostability (in words)” value in data set [3] (ICH Option 1 irradiation, 26.2 hours) is on record as “excellent photostability”. For the same compound, in data set [3] (setting [7]), the Description result is reported as “Purple”, the “Purity % (HPLC)” value stood at 99.38% and the XRPD entry was “Consistent”. In data set [3] (setting [8]), the Description entry is “Purple” and the “Purity % (HPLC)” value came to 99.29%. For the same compound, in data set [3] (after ICH Option 1 irradiation, 26.2 hours), the “Change in the appearance, XRPD and HPLC purity” value was “no significant change”. In addition, in data set [4] (Day 21), the “Mean Body Weight ± SEM” value was 21.43 ± 0.35 ^N.S. g. For the same compound, the “Mean Body Weight ± SEM” value in data set [4] (Day 35) is listed as 22.65 ± 0.30 ^N.S. g. The “Body weight decrease (in words)” value in data set [4] (each group (Groups 2-4), until day 35) is reported as “no statistically significant decrease in body weight”. Moreover, in the data set on Caspase-3, the “Cleaved Caspase-3 expression in tumors” value is reported as “increased” and the “Full length Caspase-3 expression in tumors” value is given as “decreased”.
